Experiment [1] is filed under the species Rattus norvegicus. The experiment in a line: Inhibition of rat liver MAO assessed as release of 4-hydroxyquinoline from kynuramine at 3.6 x 10^-6 M preincubated for 10 mins.
Experiment [2] is filed under the species Rattus norvegicus. The experiment in a line: Inhibition of rat liver MAO assessed as release of 4-hydroxyquinoline from kynuramine at 3.6 x 10^-6 M.
In experiment [3] the test system is Mus musculus. Nature of the experiment: Induction of gross behavioral activity in Swiss albino mouse assessed as clonic seizure of hind quarters at 50 mg/kg, ip after 10 to 15 mins. It counts as functional, organism-based. Details: dose 50 mg/kg.
In experiment [4] the test system is Mus musculus. The experiment in a line: Induction of gross behavioral activity in Swiss albino mouse assessed as increase in clonic seizure of hind quarters at 25 mg/kg, ip in presence of 5HT antagonist BOL. It is filed as functional, organism-based. Details: dose 25 mg/kg.
For experiment [5], the system named is Mus musculus. Nature of the experiment: Induction of gross behavioral activity in Swiss albino mouse assessed as decrease in motor activity with some clonic seizure at 50 mg/kg, ip after 25 to 30 mins. On the set-up: dose 50 mg/kg. It is filed as functional, organism-based.
Experiment [6] deals with Mus musculus. The experiment in a line: Induction of gross behavioral activity in 3 mg/kg of cyprohepatidine treated Swiss albino mouse assessed as increase in clonic seizure of hind quarters at 25 mg/kg, ip treated 40 mins after cyprohepatidine administration. It counts as functional, organism-based.
Experiment [7] has as its system Mus musculus. The experiment in a line: Induction of gross behavioral activity in ip dosed Swiss albino mouse assessed as minimum effective dose. It is filed as functional. Particulars: read-out: MED.
Experiment [8] relates to Mus musculus. Nature of the experiment: Induction of gross behavioral activity in Swiss albino mouse assessed as increase in clonic seizure of hind quarters at 25 mg/kg, ip in presence of 3 mg/kg of cyprohepatidine. It is filed as functional, organism-based.
Experiment [9] has as its system Mus musculus. Nature of the experiment: Induction of gross behavioral activity in Swiss albino mouse assessed as increase in clonic seizure of hind quarters at 25 mg/kg, ip in presence of 2 to 25 mg/kg of methysergide. It counts as functional, organism-based.

Active and inactive are the calls of the source. The rule behind the calls is not given here.

Consider `C#CCN(C)Cc1ccccc1`, for which the inhibition – broadly, the change of the read-out against control, counted positive when it falls – in the experiment listed under Rattus norvegicus [1] is 78%; in the experiment filed under Rattus norvegicus [2] it was 45%.

For the compound `NCCc1c[nH]c2ccccc12` [TRYPTAMINE], the outcome in the experiment on Mus musculus [3], with Mus musculus [5], with Mus musculus [8] and in the experiment on Mus musculus [9] was Active. Further, the outcome in the experiment with Mus musculus [4] and in the experiment with Mus musculus [6] was inactive. Moreover, the minimal effective dose in the experiment on Mus musculus [7] is less than 25 mg/kg.

(Values after ChEMBL document CHEMBL3244204, “Acetylenics. 2. Synthesis and pharmacology of certain N,N-diakyl-3-phenylpropyn-2-amines. Some analogues with tryptamine-like behavioral effects in mice” (J Med Chem, 1978).)
